# Reference: paper PMC8546056 (Nature Communications, 2021)
# Columns and labels:
# WSEIV NA = WSEIV NA (Wuhan spiny eel influenza virus, UniProt A0A2P1GNP4); format: biochemical
# [1] = system: CC(=O)N[C@H]1[C@H]([C@H](O)[C@H](O)CO)O[C@](Oc2ccc3c(C)cc(=O)oc3c2)(C(=O)O)C[C@@H]1O; experiment: purified protein; conditions: 37.0 °C
# B/Malaysia/2506/2004 NA = system: T1, B/Malaysia/2506/2004 NA; format: biochemical, Influenza B virus
# T1 construct: recombinant NA secreted from High Five insect cells (baculovirus); N-terminal VASP tetramerization domain
compound,measurement,setting,value
CCOC(=O)C1=C[C@@H](OC(CC)CC)[C@H](NC(C)=O)[C@@H](N)C1 [oseltamivir],dose-dependent inhibition,WSEIV NA,The WSEIV NA was sensitive to oseltamivir
WSEIV NA (Wuhan spiny eel influenza virus),Km,[1],118.5 ± 18.3 µM
"CC(=O)N[C@H]1[C@H]([C@H](O)[C@H](O)CO)O[C@](Oc2ccc3c(C)cc(=O)oc3c2)(C(=O)O)C[C@@H]1O [MUNANA, 4-methylumbelli-feryl N-acetyl-α-D-neuraminic acid]",Km,B/Malaysia/2506/2004 NA,137 ± 23.7 µM
